The source of these data is article PMC8308777, “Small Molecule–Peptide Conjugates as Dimerization Inhibitors of Leishmania infantum Trypanothione Disulfide Reductase” (Pharmaceuticals, 2021).

Series [1] has as its target T1, HIS-FLAG-tagged LiTryR dimer (Leishmania infantum, UniProt A4HSF7).
T1 construct: made in house; host or cells: E. coli BL21 (DE3) Rossetta 2
The series can be described thus: LiTryR dimer quantitation assay (ELISA). The series is classed as biochemical. The note with it: HIS-FLAG-LiTryR 400 nM, 16 h at 37 °C, Tris pH 8.0, 300 mM NaCl, compounds 25 to 3.1 μM, IC50 ± SE, three independent experiments in triplicate, SEM, read-out: IC50dim, LiTryR dimer quantitation. Here is the method:
The relative amount of the LiTryR dimeric form in the presence of the SMPCs was assessed using an enzyme-linked immunosorbent assay (ELISA), developed in our laboratory. Briefly, HIS-FLAG-tagged LiTryR (400 nM) was incubated in dimerization buffer (1 mL of 50 mM Tris pH 8.0 and 300 mM NaCl) for 16 h at 37 °C with vigorous shaking and in a humid atmosphere in the presence of the different compounds ranging from 25 to 3.1 μM. Following a 15 min centrifugation at 18,000× g and room temperature, the supernatants were added to the α-FLAG-coated plates (200 μL/well) and incubated for 30 min at 37 °C with vigorous shaking in a humid atmosphere. The plates were washed five times with TTBS buffer (2 mM Tris pH 7.6, 138 mM NaCl, and 0.1% Tween-20) and incubated with diluted monoclonal α-HIS horseradish peroxidase (HRP)-conjugated antibody (200 μL/well, 1:50,000, Abcam, Cambridge, UK) in fatty acid- and essentially globulin-free bovine serum albumin (5%) prepared in TTBS buffer for 1 h at room temperature. The plates were washed again five times and the o-phenylenediamine dihydrochloride substrate, prepared according to the manufacturer’s instructions, was added (100 μL/well). The enzymatic reactions were stopped after 5 min by addition of […] (100 μL/well) and the absorbances were measured at 490 nm in an EnSpire Multimode Plate Reader (PerkinElmer, Waltham, MA, USA).
For IC50 determinations, the absorbance values in the presence of different concentrations of inhibitor were normalized as a percentage with respect to the absorbance value in the presence of DMSO. The IC50 values were obtained by fitting these percentages to a nonlinear regression model with GraFit 6 software (Erithacus, Horley, Surrey, U.K.). The assays were carried out in triplicate and repeated three times.

The conditions of series [2]: qualitative, attributed to increased hydrophobicity of the adamantyl substituent.
Series [3] has as its target T2, Leishmania infantum trypanothione disulfide reductase (LiTryR) (Leishmania infantum, UniProt A4HSF7).
T2 construct: HIS; made in house; host or cells: E. coli BL21 (DE3) Rossetta 2
The series can be described thus: LiTryR oxidoreductase activity assay (DTNB-coupled). The class given is biochemical. The note with it: modified DTNB-coupled assay, 26 °C, HEPES pH 7.5, HIS-LiTryR 7 nM, TS2 1 μM, NADPH 150 μM, inhibitor 0.1-25 μM, no preincubation; IC50 ± SE, three independent experiments in triplicate; SEM; read-out: IC50act, LiTryR oxidoreductase activity. The protocol:
LiTryR oxidoreductase activity was assessed spectrophotometrically using a modified version of the DTNB-coupled assay, described by Hamilton et al.. Briefly, reactions were performed at 26 °C in 250 μL of HEPES buffer (pH 7.5, 40 mM) containing EDTA (1 mM), NADP^+ (30 μM), DTNB (25 μM), TS2 (1 μM), NADPH (150 μM), glycerol (0.02%), DMSO (1.75%), and recombinant HIS-LiTryR (7 nM). […] Reactions were started by addition of a mixture (50 μL/well) of the substrates (NADPH and TS2).
LiTryR oxidoreductase activity was monitored at 26 °C by an increase in absorbance at 412 nm in an EnSpire Multimode Plate Reader (PerkinElmer, Waltham, MA, USA). In this DTNB-coupled assay, one molecule of T(SH)2 reduces one molecule of DTNB, producing two TNB molecules. The TNB concentration was obtained by multiplying the absorbance values by 100 (50 μM TNB generates 0.5 arbitrary units of absorbance at 412 nm).
For IC50 determinations, the initial velocities were calculated from the slope of the initial linear part of the reaction curves. The initial velocities of the reaction progress curves in the presence of inhibitor (concentrations ranging from 0.1 to 25 μM) were normalized as a percentage with respect to the initial velocity in the presence of the inhibitor vehicle (DMSO). IC50 values were obtained by fitting these percentages to a nonlinear regression model with GraFit 6 software (Erithacus, Horley, Surrey, U.K.). All the assays were performed in triplicate.

The target of series [4] is T2, Leishmania infantum trypanothione disulfide reductase (LiTryR). The note with it: earlier work of the authors; cited from earlier work. An excerpt: Considering that the biologically functional form of TryR is a homodimer, in 2013, we devised an alternative inhibition strategy aimed at disrupting the protein–protein interactions at the homodimer interface of Leishmania infantum TryR (LiTryR). Thus, by combining molecular modeling and site-directed mutagenesis studies, we identified and validated, for the first time, Glu436 (located at an interfacial α-helix spanning from Pro435 to Met447) as a “hotspot” for LiTryR homodimer stabilization. As a “proof of concept”, we designed and tested a small library of linear peptides [[22] ...

T2 sequence (A4HSF7 entry or part of it): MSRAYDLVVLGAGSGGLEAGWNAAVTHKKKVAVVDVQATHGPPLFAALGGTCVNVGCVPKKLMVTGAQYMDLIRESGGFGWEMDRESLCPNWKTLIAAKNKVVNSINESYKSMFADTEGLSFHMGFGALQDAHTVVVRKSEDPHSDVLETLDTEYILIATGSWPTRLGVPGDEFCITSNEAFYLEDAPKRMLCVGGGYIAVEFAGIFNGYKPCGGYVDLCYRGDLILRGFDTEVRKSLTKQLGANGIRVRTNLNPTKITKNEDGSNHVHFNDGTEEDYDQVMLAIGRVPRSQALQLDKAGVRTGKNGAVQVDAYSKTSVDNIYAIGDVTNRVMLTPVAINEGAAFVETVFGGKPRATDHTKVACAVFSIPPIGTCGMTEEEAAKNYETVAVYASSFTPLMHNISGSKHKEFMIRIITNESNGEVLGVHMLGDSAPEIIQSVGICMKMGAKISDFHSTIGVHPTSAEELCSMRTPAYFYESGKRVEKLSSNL
T1 sequence (A4HSF7 entry or part of it): as above

With `CC[C@H](C)[C@H](NC(=O)CNC(=O)[C@@H](NC(=O)[C@H](CO)NC(=O)[C@H](CCC(N)=O)NC(=O)[C@@H](NC(=O)[C@@H](NC(=O)[C@H](CCCCN)NC(=O)[C@@H]1CCCN1C(=O)COCCOCCNC(=O)CC12CC3CC(CC(C3)C1)C2)[C@@H](C)CC)[C@@H](C)CC)C(C)C)C(N)=O` [1f, Adamantyl-CH2-CO-NH-(CH2)2-O-(CH2)2-O-CH2-CO-NH-PKIIQSVGI-NH2], the IC50 in series [1] was 8.1 ± 0.2 µM; in series [3], 7.6 ± 1.2 µM. In addition, the solubility entry in series [2] is on record as “decrease in solubility”.

Consider “Ac-PKIIQSVGISMKM-NH2 [TRL35, Nα-acetylated 13-mer peptide, earlier LiTryR dimerization disruptor]”, for which the “inhibition of the oxidoreductase activity of LiTryR” value in series [4] is “submicromolar range”.
